The record followed here is patent US10633348B2, “Methods to treat lymphoplasmacytic lymphoma” (Dana-Farber Cancer Institute, Inc., priority 2013, dated 2020).

Usually EC50 stands for the concentration that produces a half-maximal response. As usually defined, the IC50 is the midpoint of a concentration-inhibition curve.

In one assay the test system is Ramos. As to the kind of experiment: CellTiter-Glo cell viability assay. The following applies: Homo sapiens. The assay is classed as cell-based. The protocol:
(§1) CellTiter-Glo® Luminescent cell viability assay (Promega) was used to assess cell survival following treatment with the compounds described. Cells were seeded into 384 well plates with the EL406 Combination Washer Dispenser (BioTek Instruments, Inc.) and the compounds were injected into the cells culture media with the JANUS Automated Workstation (PerkinElmer Inc.). Cells were treated with a series diluted inhibitors (20˜0.04 μM) for 72 hours at 37° C. Luminescent measurement is performed using the 2104 Envision® Multilabel Reader (PerkinElmer Inc.).
For orientation: In ATP-based viability assays light output follows the ATP content of the culture.

The next assay deals with OCI-Ly19. As to the kind of experiment: CellTiter-Glo cell viability assay. The format is cell-based. The following applies: Homo sapiens. The procedure: as §1
A further assay has as its system BCWM.1. The assay can be described thus: CellTiter-Glo cell viability assay. The assay is classed as cell-based. The procedure: as §1
In another assay the test system is OCI-Ly3. As to the kind of experiment: CellTiter-Glo cell viability assay. The assay is classed as cell-based. The protocol: as §1
A further assay has as its system MWCL-1. The assay can be described thus: CellTiter-Glo cell viability assay. The assay is classed as cell-based. The procedure: as §1
The test system of a further assay is TMD8. The assay can be described thus: CellTiter-Glo cell viability assay. The following applies: Homo sapiens, 72 hours. The format is cell-based. The procedure: as §1
The next assay concerns OCI-Ly7. The assay can be described thus: CellTiter-Glo cell viability assay. The following applies: Homo sapiens, 72 hours. The assay is classed as cell-based. The protocol: as §1
The next assay concerns HCK. The assay is classed as biochemical. The following applies: read-out: HCK IC50 (nM) Inv. From the text:
The in vitro activity of the compounds described herein in inhibiting TAK1, HCK and other kinases were obtained using an Invitrogen Select Screening assay as known in the art. The IC50 values determined from this assay are shown below.

In the case of `CCN1CCN(Cc2ccc(NC(=O)c3ccc(C)c(Oc4cc(Nc5ccn[nH]5)ncn4)c3)cc2C(F)(F)F)CC1` [(A-6), 3-((6-((1H-pyrazol-5-yl)amino)pyrimidin-4-yl)oxy)-N-(4-((4-ethylpiperazin-1-yl)methyl)-3-(trifluoromethyl)phenyl)-4-methylbenzamide], the EC50 turned out to be 3080 nM in the assay with Ramos (72 h); 302 nM in the assay with OCI-Ly19 (OCI-LY19, 72 h); 86 nM in the assay on BCWM.1 (BCWM1, 72 h); 4770 nM in the assay on OCI-Ly3 (Homo sapiens, OCI-Ly3, 72 h); 118 nM in the assay with MWCL-1 (72 h).
`CCN1CCN(Cc2ccc(NC(=O)c3ccc(C)c(Oc4cc(Nc5ccn(C)n5)ncn4)c3)cc2C(F)(F)F)CC1` [(A-12), N-(4-((4-ethylpiperazin-1-yl)methyl)-3-(trifluoromethyl)phenyl)-4-methyl-3-((6-((1-methyl-1H-pyrazol-3-yl)amino)pyrimidin-4-yl)oxy)benzamide]: the EC50 is 2960 nM in the assay with Ramos (72 h); 209 nM with OCI-Ly19 (OCI-LY19, 72 h); 71 nM in the assay on BCWM.1 (72 hours); 38 nM in the assay on BCWM.1 (BCWM1, 72 h); 75 nM with MWCL-1 (72 h); 71 nM in the assay on MWCL-1 (72 hours).
With `Cc1ccc(C(=O)Nc2cccc(C(C)(C)C#N)c2)cc1Oc1ncnc2[nH]ccc12` [(I-11), 3-((7H-pyrrolo[2,3-d]pyrimidin-4-yl)oxy)-N-(3-(2-cyanopropan-2-yl)phenyl)-4-methylbenzamide], the EC50 was determined as 3890 nM in the assay with Ramos (72 hours); 4950 nM in the assay on BCWM.1 (BCWM1, 72 h); 9690 nM in the assay on OCI-Ly3 (Homo sapiens, OCI-Ly3, 72 h); 3460 nM in the assay with TMD8; 1440 nM with MWCL-1 (72 h); 1120 nM in the assay with OCI-Ly7.
In the case of `CCN1CCN(Cc2ccc(NC(=O)c3ccc(C)c(Oc4cc(NC)ncn4)c3)cc2C(F)(F)F)CC1` [(A-1), N-(4-((4-ethylpiperazin-1-yl)methyl)-3-(trifluoromethyl)phenyl)-4-methyl-3-((6-(methylamino)pyrimidin-4-yl)oxy)benzamide], the EC50 in the assay on Ramos (72 hours) amounted to 9480 nM; in the assay on OCI-Ly19 (OCI-LY19, 72 hours) it was 4980 nM; in the assay with BCWM.1 (BCWM1, 72 h) it was 1720 nM; in the assay with OCI-Ly3 (Homo sapiens, OCI-Ly3, 72 h) it was 11500 nM; with MWCL-1 (72 h), 3990 nM. For the same compound, in the assay with HCK, the IC50 was determined as 275 nM.
With `CCN1CCN(Cc2ccc(NC(=O)c3ccc(C)c(Oc4cc(NC5COC5)ncn4)c3)cc2C(F)(F)F)CC1` [(A-13), N-(4-((4-ethylpiperazin-1-yl)methyl)-3-(trifluoromethyl)phenyl)-4-methyl-3-((6-(oxetan-3-ylamino)pyrimidin-4-yl)oxy)benzamide], the EC50 with Ramos (72 h) was found to be 3260 nM; with OCI-Ly19 (OCI-LY19, 72 h) it was 2280 nM; in the assay on OCI-Ly3 (72 hours), 1730 nM; in the assay with OCI-Ly3 (Homo sapiens, OCI-Ly3, 72 h) it was 1200 nM; with MWCL-1 (72 h), 1760 nM; with MWCL-1 (72 hours) it was 2860 nM.
In the case of `CCN1CCN(Cc2ccc(NC(=O)c3ccc(C)c(Oc4cc(NN(C)C)ncn4)c3)cc2C(F)(F)F)CC1` [(A-11), 3-((6-(2,2-dimethylhydrazinyl)pyrimidin-4-yl)oxy)-N-(4-((4-ethylpiperazin-1-yl)methyl)-3-(trifluoromethyl)phenyl)-4-methylhenzamide], the EC50 with Ramos (72 hours) was over 20000 nM; in the assay with OCI-Ly19 (OCI-LY19, 72 hours), over 20000 nM; in the assay on BCWM.1 (BCWM1, 72 h), 19700 nM; with OCI-Ly3 (Homo sapiens, OCI-Ly3, 72 h), over 20000 nM; in the assay with MWCL-1 (72 h), over 20000 nM. Besides, the IC50 with HCK is over 10000 nM.
On to `CCC(=O)Nc1cc(Oc2cc(C(=O)Nc3ccc(CN4CCN(CC)CC4)c(C(F)(F)F)c3)ccc2C)ncn1` [(A-2), N-(4-((4-ethylpiperazin-1-yl)methyl)-3-(trifluoromethyl)phenyl)-4-methyl-3-((6-propionamidopyrimidin-4-yl)oxy)benzamide], for which the EC50 in the assay on Ramos (72 h) was 5340 nM; in the assay on OCI-Ly19 (OCI-LY19, 72 h), 1750 nM; with BCWM.1 (BCWM1, 72 h), 42 nM; in the assay with OCI-Ly3 (Homo sapiens, OCI-Ly3, 72 h), 2960 nM; in the assay with MWCL-1 (72 h), 1350 nM.
As to `CCN1CCN(Cc2ccc(NC(=O)c3ccc(C)c(Oc4cc(Nc5cnoc5)ncn4)c3)cc2C(F)(F)F)CC1` [(A-16), N-(4-((4-ethylpiperazin-1-yl)methyl)-3-(trifluoromethyl)phenyl)-3-((6-(isoxazol-4-ylamino)pyrimidin-4-yl)oxy)-4-methylbenzamide], the EC50 amounted to 1310 nM in the assay on Ramos (72 hours); 777 nM in the assay with OCI-Ly19 (OCI-LY19, 72 hours); 610 nM in the assay with BCWM.1 (BCWM1, 72 h); 856 nM in the assay with TMD8; 1710 nM in the assay with MWCL-1 (72 h); 1030 nM in the assay with OCI-Ly7.
Consider `CCN1CCN(Cc2ccc(NC(=O)c3ccc(C)c(Oc4cc(NC5CNC5)ncn4)c3)cc2C(F)(F)F)CC1` [(A-10), 3-((6-(azetidin-3-ylamino)pyrimidin-4-yl)oxy)-N-(4-((4-ethylpiperazin-1-yl)methyl)-3-(trifluoromethyl)phenyl)-4-methylbenzamide], for which the EC50 with Ramos (72 hours) was over 20000 nM; with OCI-Ly19 (OCI-LY19, 72 hours), over 20000 nM; in the assay with MWCL-1 (72 h), 24800 nM; in the assay on MWCL-1 (72 hours) it was over 20000 nM. Besides, the IC50 in the assay with HCK was over 10000 nM.
On to `CCN1CCN(Cc2ccc(NC(=O)c3ccc(C)c(Oc4cc(Nc5cn[nH]c5)ncn4)c3)cc2C(F)(F)F)CC1` [(A-7), 3-((6-((1H-pyrazol-4-yl)amino)pyrimidin-4-yl)oxy)-N-(4-((4-ethylpiperazin-1-yl)methyl)-3-(trifluoromethyl)phenyl)-4-methylbenzamide], for which the EC50 in the assay with Ramos (72 h) amounted to 3020 nM; with OCI-Ly19 (OCI-LY19, 72 h), 192 nM; with BCWM.1 (BCWM1, 72 h) it was 48 nM; in the assay with OCI-Ly3 (Homo sapiens, OCI-Ly3, 72 h), 4000 nM; in the assay with MWCL-1 (72 h), 71 nM.
On to `CCN1CCN(Cc2ccc(NC(=O)c3ccc(C)c(Oc4ccnc(Nc5cnoc5)n4)c3)cc2C(F)(F)F)CC1` [(A-15), N-(4-((4-ethylpiperazin-1-yl)methyl)-3-(trifluoromethyl)phenyl)-3-((2-(isoxazol-4-ylamino)pyrimidin-4-yl)oxy)-4-methylbenzamide], for which the EC50 stood at 4680 nM with Ramos (72 h); 307 nM with OCI-Ly19 (OCI-LY19, 72 h); 185 nM in the assay on BCWM.1 (BCWM1, 72 h); 392 nM in the assay with TMD8; 718 nM in the assay with MWCL-1 (72 h); 786 nM with OCI-Ly7.
With `C=CC(=O)NNc1cc(Oc2cc(C(=O)Nc3ccc(CN4CCN(CC)CC4)c(C(F)(F)F)c3)ccc2C)ncn1` [(A-18)], the EC50 in the assay on Ramos (72 h) was 7240 nM; with OCI-Ly19 (OCI-LY19, 72 h) it was 2780 nM; in the assay with BCWM.1 (72 hours) it was 3750 nM; in the assay with BCWM.1 (BCWM1, 72 h), 1980 nM; in the assay on MWCL-1 (72 h), 4090 nM; with MWCL-1 (72 hours) it was 6740 nM.
Take `CCN1CCN(Cc2ccc(NC(=O)c3ccc(C)c(Oc4cc(NC(=O)C5CC5)ncn4)c3)cc2C(F)(F)F)CC1` [(A-3), 3-((6-(cyclopropanecarboxamido)pyrimidin-4-yl)oxy)-N-(4-((4-ethylpiperazin-1-yl)methyl)-3-(trifluoromethyl)phenyl)-4-methylbenzamide]: the EC50 in the assay on Ramos (72 h) came out at 2680 nM; in the assay on OCI-Ly19 (OCI-LY19, 72 h), 600 nM; in the assay on BCWM.1 (BCWM1, 72 h), 50 nM; in the assay on OCI-Ly3 (Homo sapiens, OCI-Ly3, 72 h) it was 480 nM; with MWCL-1 (72 h), 910 nM.
`CCN1CCN(Cc2ccc(NC(=O)c3ccc(C)c(Oc4cc(NNC(C)=O)ncn4)c3)cc2C(F)(F)F)CC1` [(A-9), 3-((6-(2-acetylhydrazinyl)pyrimidin-4-yl)oxy)-N-(4-((4-ethylpiperazin-1-yl)methyl)-3-(trifluoromethyl)phenyl)-4-methylbenzamide]: the EC50 is over 20000 nM with Ramos (72 hours); over 20000 nM in the assay on OCI-Ly19 (OCI-LY19, 72 hours); 6460 nM in the assay on BCWM.1 (72 hours); 10800 nM in the assay with BCWM.1 (BCWM1, 72 h); over 20000 nM in the assay on OCI-Ly3 (72 hours); 19600 nM with OCI-Ly3 (Homo sapiens, OCI-Ly3, 72 h). The EC50 with MWCL-1 (72 h) is 18700 nM; in the assay with MWCL-1 (72 hours), over 20000 nM. In the assay on HCK, the IC50 was over 10000 nM.
